# In US6737383B1, “Herbicidal oxadiazolidines” (priority 1999, dated 2004):
# What was measured:
# pigweed = assay: Test B pre/postemergence pigweed; type: in vivo, Amaranthus retroflexus; settings: for Plant response rating, Redroot pigweed: scale of 0 to 10 where 0 is no effect and 10 is complete control
# How it was run: (§1)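 Response is a visual 0-to-10 score relative to untreated plants, where 0 means no effect and 10 means complete control, taken twelve to sixteen days after application. Treatments went onto soil at planting and onto foliage of 1- to 4-leaf plants, using a surfactant-containing non-phytotoxic solvent.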
# sugar beet = assay: Test B pre/postemergence sugar beet; type: in vivo, Beta vulgaris; settings: for Plant response rating, Sugarbeets: scale of 0 to 10 where 0 is no effect and 10 is complete control
# How it was run: as §1
# soybean = assay: Test B pre/postemergence soybean; type: in vivo, Glycine max; settings: for Plant response rating, Soybean: scale of 0 to 10 where 0 is no effect and 10 is complete control
# How it was run: as §1
# rape = assay: Test B pre/postemergence rape; type: in vivo, Brassica napus; settings: for Plant response rating, Rape: scale of 0 to 10 where 0 is no effect and 10 is complete control
# How it was run: as §1
# bamyardgrass = assay: Test B flood test barnyardgrass; type: in vivo, Echinochloa crus-galli
# How it was run: (§2)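 Plants were grown to the 2-leaf stage before treatment with test chemical, then held in a greenhouse for twelve to sixteen days. Injury was visually rated against untreated controls on a 0–10 scale, where 0 is no effect and 10 is complete control.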
# duck salad = assay: Test B flood test duck salad; type: in vivo, Heteranthera limosa
# How it was run: as §2
# velvetleaf = assay: Test B pre/postemergence velvetleaf; type: in vivo, Abutilon theophrasti; settings: for Plant response rating, Velvetleaf: scale of 0 to 10 where 0 is no effect and 10 is complete control
# How it was run: as §1
# rice = assay: Test B flood test rice; type: in vivo, Oryza sativa
# How it was run: as §2
# surinam grass = assay: Test B pre/postemergence surinam grass; type: in vivo, Brachiaria decumbens
# How it was run: as §1
# wild oat = assay: Test B pre/postemergence wild oat; type: in vivo, Avena fatua; settings: for Plant response rating, Wild oats: scale of 0 to 10 where 0 is no effect and 10 is complete control
# How it was run: as §1
# cocklebur = assay: Test B pre/postemergence cocklebur; type: in vivo, Xanthium strumarium
# How it was run: as §1
# giant foxtail = assay: Test B pre/postemergence giant foxtail; type: in vivo, Setaria faberii
# How it was run: as §1
# corn = assay: Test B pre/postemergence corn; type: in vivo, Zea mays
# How it was run: as §1
# wheat = assay: Test B pre/postemergence wheat; type: in vivo, Triticum aestivum; settings: for Plant response rating, Wheat: scale of 0 to 10 where 0 is no effect and 10 is complete control
# How it was run: as §1
# morningglory = assay: Test B pre/postemergence morningglory; type: in vivo, Ipomoea hederacea; settings: for Plant response rating, Morningglory: scale of 0 to 10 where 0 is no effect and 10 is complete control
# How it was run: as §1
# smallflower flatsedge = assay: Test B flood test smallflower flatsedge; type: in vivo, Cyperus difformis
# How it was run: as §2
# purple nutsedge = assay: Test B pre/postemergence purple nutsedge; type: in vivo, Cyperus rotundus; settings: for Plant response rating, Nutsedge: scale of 0 to 10 where 0 is no effect and 10 is complete control
# How it was run: as §1
# blackgrass = assay: Test B pre/postemergence blackgrass; type: in vivo, Alopecurus myosuroides
# How it was run: as §1
# crabgrass = assay: Test B pre/postemergence crabgrass; type: in vivo, Digitaria sanguinalis
# How it was run: as §1
# [1] = Postemergence, Rate 250 g/ha, scale 0 to 10
# [2] = Preemergence, Rate 250 g/ha, scale 0 to 10, 0 is no effect, 10 is complete control
# [3] = Preemergence, Rate 500 g/ha, scale 0 to 10, 0 is no effect, 10 is complete control
# [4] = Rate 62 g/ha, Postemergence, scale 0 to 10 (0 no effect, 10 complete control)
# [5] = Rate 125 g/ha, Postemergence, scale 0 to 10, 0 is no effect, 10 is complete control
# [6] = Rate 62 g/ha, flood test species, Pre-emergence, visual evaluation after twelve to sixteen days
# [7] = Rate 125 g/ha, under heading Pre-emergence, flood test species, visual evaluation after twelve to sixteen days
# [8] = Rate 250 g/ha, Pre-emergence (flood test species), scale 0 to 10, 0 is no effect, 10 is complete control
# [9] = Rate 500 g/ha, Pre-emergence, flood test species, scale 0 to 10 (0 no effect, 10 complete control)
# [10] = Postemergence, Rate 500 g/ha, scale of 0 to 10 where 0 is no effect and 10 is complete control
# [11] = Preemergence, Rate 62 g/ha, scale of 0 to 10 where 0 is no effect and 10 is complete control
# [12] = Preemergence, Rate 125 g/ha, scale of 0 to 10 where 0 is no effect and 10 is complete control
compound,measurement,setting,value
CCOC(=O)CC(C(=O)OCC)n1c(=O)on(C(=O)N(c2ccc(F)cc2F)C(C)C)c1=O (centres unmarked) [Compound 465],Redroot pigweed plant response rating,pigweed; [1],0
same,"Plant response rating, Redroot pigweed","pigweed; Preemergence, Rate 62 g/ha",3
same,"Plant response rating, Redroot pigweed","pigweed; Preemergence, Rate 125 g/ha",9
same,Redroot pigweed plant response rating,pigweed; [2],9
same,Redroot pigweed plant response rating,pigweed; [3],10
same,Redroot pigweed plant response rating,pigweed; [4],0
same,Redroot pigweed plant response rating,pigweed; [5],0
same,Sugarbeets plant response rating,sugar beet; [1],0
same,"Plant response rating, Sugarbeets","sugar beet; Preemergence, Rate 62 g/ha",0
same,"Plant response rating, Sugarbeets","sugar beet; Preemergence, Rate 125 g/ha",2
same,Sugarbeets plant response rating,sugar beet; [2],3
same,Sugarbeets plant response rating,sugar beet; [3],5
same,Sugarbeets plant response rating,sugar beet; [4],0
same,Sugarbeets plant response rating,sugar beet; [5],0
same,Soybean plant response rating,soybean; [1],1
same,"Plant response rating, Soybean","soybean; Preemergence, Rate 62 g/ha",0
same,"Plant response rating, Soybean","soybean; Preemergence, Rate 125 g/ha",0
same,Soybean plant response rating,soybean; [2],7
same,Soybean plant response rating,soybean; [4],1
same,Soybean plant response rating,soybean; [5],1
same,Rape plant response rating,rape; [1],0
same,"Plant response rating, Rape","rape; Preemergence, Rate 62 g/ha",0
same,"Plant response rating, Rape","rape; Preemergence, Rate 125 g/ha",2
same,Rape plant response rating,rape; [2],2
same,Rape plant response rating,rape; [3],5
same,Rape plant response rating,rape; [4],0
same,Rape plant response rating,rape; [5],0
same,"Plant response rating, Barnyardgrass (0 to 10 scale, 0 is no effect, 10 is complete control)",bamyardgrass; [6],0
same,"Barnyardgrass plant response rating (0 to 10 scale, 0 is no effect, 10 is complete control)",bamyardgrass; [7],0
same,Barnyardgrass plant response rating,bamyardgrass; [8],0
same,Barnyardgrass plant response rating,bamyardgrass; [9],0
same,"Plant response rating, Ducksalad (0 to 10 scale, 0 is no effect, 10 is complete control)",duck salad; [6],0
same,"Ducksalad plant response rating (0 to 10 scale, 0 is no effect, 10 is complete control)",duck salad; [7],0
same,Ducksalad plant response rating,duck salad; [8],0
same,Ducksalad plant response rating,duck salad; [9],0
same,Velvetleaf plant response rating,velvetleaf; [1],3
same,"Plant response rating, Velvetleaf","velvetleaf; Preemergence, Rate 62 g/ha",0
same,"Plant response rating, Velvetleaf","velvetleaf; Preemergence, Rate 125 g/ha",3
same,Velvetleaf plant response rating,velvetleaf; [2],7
same,Velvetleaf plant response rating,velvetleaf; [3],8
same,Velvetleaf plant response rating,velvetleaf; [4],0
same,Velvetleaf plant response rating,velvetleaf; [5],0
same,"Plant response rating, Rice (0 to 10 scale, 0 is no effect, 10 is complete control)",rice; [6],0
same,"Rice plant response rating (0 to 10 scale, 0 is no effect, 10 is complete control)",rice; [7],0
same,Rice plant response rating,rice; [8],0
same,Rice plant response rating,rice; [9],0
same,B. signalgrass plant response rating,"surinam grass; Postemergence, Rate 250 g/ha, scale 0 to 10, 0 no effect, 10 complete control",0
same,B. signalgrass plant response rating,surinam grass; [10],0
same,"Plant response rating, B. signalgrass",surinam grass; [11],0
same,"Plant response rating, B. signalgrass",surinam grass; [12],2
same,B. signalgrass plant response rating,surinam grass; [2],3
same,B. signalgrass plant response rating,surinam grass; [3],5
same,B. signalgrass plant response rating,surinam grass; [4],0
same,B. signalgrass plant response rating,surinam grass; [5],0
same,Wild oats plant response rating,wild oat; [1],0
same,"Plant response rating, Wild oats","wild oat; Preemergence, Rate 62 g/ha",0
same,"Plant response rating, Wild oats","wild oat; Preemergence, Rate 125 g/ha",0
same,Wild oats plant response rating,wild oat; [2],2
same,Wild oats plant response rating,wild oat; [3],3
same,Wild oats plant response rating,wild oat; [4],0
same,Wild oats plant response rating,wild oat; [5],0
same,Cocklebur plant response rating,cocklebur; [1],0
same,Cocklebur plant response rating,cocklebur; [10],0
same,"Plant response rating, Cocklebur",cocklebur; [11],0
same,"Plant response rating, Cocklebur",cocklebur; [12],0
same,Cocklebur plant response rating,cocklebur; [2],0
same,Cocklebur plant response rating,cocklebur; [3],0
same,Cocklebur plant response rating,cocklebur; [4],0
same,Cocklebur plant response rating,cocklebur; [5],0
same,Giant foxtail plant response rating,giant foxtail; [1],5
same,Giant foxtail plant response rating,giant foxtail; [10],9
same,"Plant response rating, Giant foxtail",giant foxtail; [11],7
same,"Plant response rating, Giant foxtail",giant foxtail; [12],10
same,Giant foxtail plant response rating,giant foxtail; [2],10
same,Giant foxtail plant response rating,giant foxtail; [3],10
same,Giant foxtail plant response rating,giant foxtail; [4],2
same,Giant foxtail plant response rating,giant foxtail; [5],5
same,Corn plant response rating,corn; [1],0
same,Corn plant response rating,corn; [10],2
same,"Plant response rating, Corn",corn; [11],0
same,"Plant response rating, Corn",corn; [12],0
same,Corn plant response rating,corn; [2],0
same,Corn plant response rating,corn; [3],2
same,Corn plant response rating,corn; [4],0
same,Corn plant response rating,corn; [5],0
same,Wheat plant response rating,wheat; [1],0
same,"Plant response rating, Wheat","wheat; Preemergence, Rate 62 g/ha",0
same,"Plant response rating, Wheat","wheat; Preemergence, Rate 125 g/ha",0
same,Wheat plant response rating,wheat; [2],0
same,Wheat plant response rating,wheat; [3],0
same,Wheat plant response rating,wheat; [4],0
same,Wheat plant response rating,wheat; [5],0
same,Morningglory plant response rating,morningglory; [1],2
same,"Plant response rating, Morningglory","morningglory; Preemergence, Rate 62 g/ha",0
same,"Plant response rating, Morningglory","morningglory; Preemergence, Rate 125 g/ha",0
same,Morningglory plant response rating,morningglory; [2],0
same,Morningglory plant response rating,morningglory; [3],0
same,Morningglory plant response rating,morningglory; [4],0
same,Morningglory plant response rating,morningglory; [5],1
same,"Plant response rating, S. Flatsedge (0 to 10 scale, 0 is no effect, 10 is complete control)",smallflower flatsedge; [6],0
same,"S. Flatsedge plant response rating (0 to 10 scale, 0 is no effect, 10 is complete control)",smallflower flatsedge; [7],0
same,S. Flatsedge plant response rating,smallflower flatsedge; [8],0
same,S. Flatsedge plant response rating,smallflower flatsedge; [9],0
same,Nutsedge plant response rating,purple nutsedge; [1],0
same,"Plant response rating, Nutsedge","purple nutsedge; Preemergence, Rate 62 g/ha",0
same,"Plant response rating, Nutsedge","purple nutsedge; Preemergence, Rate 125 g/ha",0
same,Nutsedge plant response rating,purple nutsedge; [2],0
same,Nutsedge plant response rating,purple nutsedge; [3],0
same,Nutsedge plant response rating,purple nutsedge; [4],0
same,Nutsedge plant response rating,purple nutsedge; [5],0
same,Blackgrass plant response rating,blackgrass; [1],6
same,Blackgrass plant response rating,blackgrass; [10],8
same,"Plant response rating, Blackgrass",blackgrass; [11],2
same,"Plant response rating, Blackgrass",blackgrass; [12],3
same,Blackgrass plant response rating,blackgrass; [2],6
same,Blackgrass plant response rating,blackgrass; [3],10
same,Blackgrass plant response rating,blackgrass; [4],0
same,Blackgrass plant response rating,blackgrass; [5],2
same,Crabgrass plant response rating,crabgrass; [1],5
same,Crabgrass plant response rating,crabgrass; [10],8
same,"Plant response rating, Crabgrass",crabgrass; [11],2
same,Crabgrass plant response rating,crabgrass; [2],4
same,Crabgrass plant response rating,crabgrass; [3],10
same,Crabgrass plant response rating,crabgrass; [4],1
same,Crabgrass plant response rating,crabgrass; [5],1
